Like-named read-outs stand apart in the source and are kept apart here.
What was measured:
5-lipoxygenase = molecular target: T1, 5-lipoxygenase (Rattus norvegicus, UniProt P12527); assay: ARBL whole cell 5-lipoxygenase assay (LTB4 formation in RBL-1 cells, A23187-stimulated); format: cell-based; conditions: RBL-1 whole cells; for IC50: inhibition of LTB4 formation
T1 construct: host or cells: RBL-1
T1 sequence (P12527 1-673): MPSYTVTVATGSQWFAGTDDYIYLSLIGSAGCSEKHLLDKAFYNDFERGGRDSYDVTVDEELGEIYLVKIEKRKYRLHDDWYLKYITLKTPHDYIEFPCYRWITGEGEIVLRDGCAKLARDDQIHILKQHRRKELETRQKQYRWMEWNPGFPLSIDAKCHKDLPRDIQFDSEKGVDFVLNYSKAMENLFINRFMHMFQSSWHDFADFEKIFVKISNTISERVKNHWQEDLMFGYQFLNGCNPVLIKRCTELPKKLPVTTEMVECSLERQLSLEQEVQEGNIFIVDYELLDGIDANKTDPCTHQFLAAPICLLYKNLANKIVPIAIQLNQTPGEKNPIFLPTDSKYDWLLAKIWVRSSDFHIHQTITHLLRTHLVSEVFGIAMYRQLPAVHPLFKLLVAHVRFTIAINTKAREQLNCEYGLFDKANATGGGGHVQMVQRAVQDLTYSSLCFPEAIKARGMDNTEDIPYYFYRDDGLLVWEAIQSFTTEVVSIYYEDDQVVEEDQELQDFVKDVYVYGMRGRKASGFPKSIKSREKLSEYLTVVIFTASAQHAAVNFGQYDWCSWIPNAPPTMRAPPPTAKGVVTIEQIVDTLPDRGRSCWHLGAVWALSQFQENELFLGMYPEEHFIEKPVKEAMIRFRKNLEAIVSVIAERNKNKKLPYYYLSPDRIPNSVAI
Experimental: (§1) ARBL/ARBC Whole cell 5-lipoxygenase and Cyclooxygenase Aasays
(§2) The rat basophilic leukemia cell line (RBL-1) was obtained from the American Type Culture Collection (Rockville, Md.).
(§3) Radioimmunoassay (RIA) kits of LTB4 and PGF2α were obtained from Amersham (Arlington Heights, Ill.) and Seragen (Boston, Mass.), respectively.
(§4) RBL-1 cells are grown in suspension culture in Eagle's minimum essential medium supplemented with 12% fetal bovine serum at 37° C. in an incubator supplied with air-5% carbon dioxide. Cells are harvested by centrifugation. They are washed with cold phosphate buffered saline pH 7.4 (PBS; NaCl, 7.1 g; Na2 HPO4, 1.15 g; KH2 PO4, 0.2 g; and KCl, 0.2 g/L). Cells are finally suspended in PBS containing 1.0 mM calcium at a density of 2×10^6 cells/mL. Cells are incubated with and without test agent (in DMSO) (1% DMSO is without effect on arachidonic acid metabolism) for 10 minutes at room temperature. Calcium ionophore A23187 (5 μM) is added and cells are incubated for 7 minutes at 37° C. The reaction is stopped by chilling the tubes on ice for 10 minutes. Cells are separated by centrifugation and the supernatant is stored at -20° C. Aliquots (100 μL) are analyzed for LTB4 and PGF2α using radioimmunoassay kits as provided by the supplier.
(§5) Table 1 contains biochemical data obtained from this whole cell assay as IC5 s which are calculated as the amount of test compound causing 50% inhibition of LTB4 or PGF2α formation and the results of the CFE-2 assay.

Cyclooxygenase = molecular target: T2, Cyclooxygenase (Rattus norvegicus, UniProt Q63921); assay: ARBC whole cell cyclooxygenase assay (PGF2α formation in RBL-1 cells, A23187-stimulated); format: cell-based; conditions: RBL-1 whole cells; for IC50: inhibition of PGF2α formation; for inhibition at 10 µM: read-out: ARBC % inhibition of PGF2α at 10 μM (class symbol)
T2 construct: host or cells: RBL-1
T2 sequence (Q63921 27-602): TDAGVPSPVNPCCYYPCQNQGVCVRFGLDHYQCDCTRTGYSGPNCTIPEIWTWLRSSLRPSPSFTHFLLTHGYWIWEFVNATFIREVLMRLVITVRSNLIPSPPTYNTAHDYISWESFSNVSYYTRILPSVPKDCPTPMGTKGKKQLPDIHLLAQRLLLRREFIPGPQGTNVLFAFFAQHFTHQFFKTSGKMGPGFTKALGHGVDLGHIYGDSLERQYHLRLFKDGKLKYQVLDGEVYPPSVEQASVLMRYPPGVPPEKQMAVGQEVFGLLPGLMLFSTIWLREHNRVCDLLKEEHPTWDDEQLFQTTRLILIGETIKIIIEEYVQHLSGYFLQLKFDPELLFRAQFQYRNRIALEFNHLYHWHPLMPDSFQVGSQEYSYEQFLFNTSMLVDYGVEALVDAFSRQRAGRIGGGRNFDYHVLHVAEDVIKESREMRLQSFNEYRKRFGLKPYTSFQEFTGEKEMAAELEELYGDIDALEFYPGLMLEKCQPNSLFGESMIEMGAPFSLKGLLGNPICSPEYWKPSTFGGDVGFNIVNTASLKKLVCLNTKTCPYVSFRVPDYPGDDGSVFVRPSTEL
Experimental: as §1, §2, §3, §4, §5

[1] = Carrageenan-Induced Rat Foot Paw Edema-2 (CFE-2) Assay; format: in vivo; conditions: dosed 1 hour before carrageenan, edema measured 5 hours after carrageenan
Experimental: Carrageenan-Induced Rat Foot Paw Edema-2 (CFE-2) Assay:Protocol
Carrageenan solution (1% w/v) is prepared by dissolving 100 mg carrageenan (Marine Colloidal Div., Springfield, N.J.) in 10 mL of sterile saline (0.9%) solution (Travenol). The solution is vortexed for 30 to 45 minutes. Animals are dosed with compound 1 hour before carrageenan challenge. Foot paw edema is induced by injecting 0.10 mL of the 1% carrageenan subcutaneously into the plantar portion of the right hind paw of each rat under light anesthesia. Initial foot paw volume is measured immediately following carrageenan challenge using mercury plethysmography (Buxco Electronics). Edema is measured 5 hours after carrageenan. The difference between the 5-hour and the initial paw volume is expressed as delta edema. The delta edema for each test group of animals is used to calculate the percent inhibition of edema achieved by the compound at the test dose compared with the vehicle control group. The ID40 (the dose at which swelling is inhibited by 40%) is calculated by probit analysis for the dose at which 40% inhibition occurs.
as §5

Row | Compound | IC50 (5-lipoxygenase) [nM] | IC50 (Cyclooxygenase) [nM] | CFE Percent inhibition at 30 mg/kg [1] [%] | inhibition at 10 µM (5-lipoxygenase; read-out: ARBL % inhibition of LTB4 at 10 μM (class symbol)) [%] | inhibition at 10 µM (Cyclooxygenase) [%] | inhibition at 10 µM (5-lipoxygenase; read-out: ARBL % inhibition of LTB4 at 10 μM) [%]
1 | Cc1ccc(Cl)c(Nc2ccccc2-c2noc(=O)[nH]2)c1Cl [Example 1, 3-[2-[(2,6-dichloro-3-methylphenyl)amino]phenyl]-1,2,4-oxadiazol-5(4H)-one] | 2300 | 13 | 58 |  |  | 
2 | Cc1ccc(S(=O)(=O)c2nc(-c3ccccc3Nc3c(Cl)ccc(C)c3Cl)ns2)cc1 [Example 2, 2,6-Dichloro-3-methyl-N-[2-[5-[(4-methylphenyl)-sulfonyl]-1,2,4-thiadiazol-3-yl]phenyl]benzenamine] |  |  |  | < 40 | < 40 | 
3 | Cc1ccc(Cl)c(Nc2ccccc2-c2nsc(N=C(N)N)n2)c1Cl [Example 3, 3-[2-[(2,6-dichloro-3-methylphenyl)amino]phenyl]-1,2,4-thiadiazol-5-yl-guanidine] |  |  |  |  | < 40 | 100
4 | Cc1ccc(Cl)c(Nc2ccccc2-c2nsc(NC#N)n2)c1Cl [Example 4, 3-[2-[(2,6-Dichloro-3-methylphenyl)amino]phenyl]-1,2,4-thiadiazol-5-yl-cyanamide] | 6150 | 1230 |  |  |  | 
